According to patent US10653797B2, “Compounds and compositions for targeting brain injuries and methods of use thereof” (SANFORD BURNHAM PREBYS MEDICAL DISCOVERY INSTITUTE, priority 2015, dated 2020):
Residues, ends and D or L forms follow the SMILES beside them. FAM = fluoresceinamine label

Key:
[1] = test system: penetrating brain injury (PBI); format: in vivo, mouse; conditions: for Homing to the injured brain (FAM fluorescence, immunohistochemical staining): i.v. 6 hours after PBI, 30 minutes circulation; for Peptide signal in injured brain 3 hours after injection (retention): mouse, in vivo
Protocol: All animal experiments were conducted under an approved protocol of the Institutional Animal Care and Use Committee of Sanford Burnham Prebys Medical Discovery Institute. Eight to ten week old male BL6 mice were anesthetized with 4% isoflurane (Aerrane; Baxter, UK) in 70% N2O and 30% O2 and positioned in a stereotaxic frame. Using a head restraint, a 5-mm craniotomy was made using a portable drill and a trephine over the right parietotemporal cortex and the bone flap was removed. Penetrating brain injury model was used as described (Kielian et al., J. Immunol. 166:4634-4643 (2001); Kielian, J. Neuroinflammation 1:16 (2004)). Nine needle punctures using a 21 G needle were made 3 mm deep according to a 3×3 grid, spaced 1 mm in width and 1 mm in height. For traumatic brain injury, a Controlled Cortical Impact (CCI) model was used as described (Krajewska et al., PLoS One 6:e24341 (2011)). Mice were subjected to CCI using the benchmark stereotaxic impactor (Impact One™; myNeuroLab.com) with the actuator part mounted directly on the stereotaxic instrument. The impactor (3 mm in diameter) tip accelerated down to the 1.0 mm distance, reaching the preset velocity of 3 m/s, and the applied electromagnetic force remained there for the dwell time of 85 ms, and then retracted automatically. The contact sensor indicated the exact point of contact for reproducible results. In both models, facemask anesthesia (1-2% isoflurane in 70%/30% nitrous oxide/oxygen) was used during the entire procedure and afterwards, the scalp was closed with sutures, anesthesia discontinued, and mice were administered buprenorphine i.p. for pain control. For the first 2 hours after injury, mice were closely monitored in their cages.
CLARITY was performed on freshly-extracted brain tissues as described (Chung et al., Nature 497:332-337 (2013)). Briefly, mice were intravenously injected with FAM-labeled peptides 6 hours after brain injury. After 30-minute circulation, mice were intracardially perfused with PBS and hydrogel solution (Acrylamide (4%), bis (0.05%), VA-044 Initiator (0.25%), paraformaldehyde 4% in PBS). Following perfusion, the tissues were incubated in the hydrogel solution at 4° C. for 2-3 days. At UCSD Neuroscience Core and Light Microscopy Facility the tissues were then degased with nitrogen and incubated at 37° C. for 3-4 hours for polymerization. Samples were then passively cleared in 4% SDS solution for around 4 weeks until the tissue became transparent. Finally, the samples were washed in PBS-T for 2 days and incubated in gradient glycerol solutions: 30, 50 and 80%, about 1 day each and stored in 80% glycerol at room temperature until imaged on a confocal microscope (Leica SP5).
Animals were intravenously injected, six hours after injury, with 50 nmoles of peptide dissolved in PBS, and allowed to circulate for 30 minutes. Mice were perfused intracardially with saline and organs were isolated and imaged using the Illumatool Bright Light System LT-9900 (Lightools Research). Brains and organs were placed in 4% PFA at pH 7.4 overnight, washed with PBS and placed in graded sucrose solutions overnight before OCT embedding. 10 μm thick sections were cut and analyzed by immunofluorescence. For a complete histological analysis, sections were stained with the Movat pentachrome kit (American Mastertech Inc.) following the manufacturer's instructions.
Frozen sections were permeabilized using PBS-Triton (0.2%), blocking was carried out using 5% blocking buffer: 5% BSA, 1% goat serum, 1% donkey serum in PBS-T. Primary antibodies were incubated in diluted (1%) blocking buffer overnight at dilutions 1/100 or 1/200 at 4° C., washed with PBS-T and incubated with secondary antibodies diluted 1/200 or 1/500 in 1% diluted buffer for one hour at room temperature, subsequently washed with PBS-T, counterstained with DAPI 1 μg/mL in PBS for five minutes, washed with PBS, mounted using mounting media (Vector Biolabs), and imaged on a confocal microscope (Zeiss LSM-710). […]

[2] = biological target: T1, Tenascin-R (Mus musculus, UniProt Q8BYI9); assay: Peptide affinity chromatography and mass spectrometry of PBI brain extract; format: binding; conditions: mouse PBI brain lysate 6 hrs after injury, eluted with 2 mM free CAQK; mean of three technical replicates
T1 construct: from tissue; host or cells: mouse brain, 6 h after penetrating brain injury (detergent lysate)
T1 sequence (Q8BYI9 32-1358): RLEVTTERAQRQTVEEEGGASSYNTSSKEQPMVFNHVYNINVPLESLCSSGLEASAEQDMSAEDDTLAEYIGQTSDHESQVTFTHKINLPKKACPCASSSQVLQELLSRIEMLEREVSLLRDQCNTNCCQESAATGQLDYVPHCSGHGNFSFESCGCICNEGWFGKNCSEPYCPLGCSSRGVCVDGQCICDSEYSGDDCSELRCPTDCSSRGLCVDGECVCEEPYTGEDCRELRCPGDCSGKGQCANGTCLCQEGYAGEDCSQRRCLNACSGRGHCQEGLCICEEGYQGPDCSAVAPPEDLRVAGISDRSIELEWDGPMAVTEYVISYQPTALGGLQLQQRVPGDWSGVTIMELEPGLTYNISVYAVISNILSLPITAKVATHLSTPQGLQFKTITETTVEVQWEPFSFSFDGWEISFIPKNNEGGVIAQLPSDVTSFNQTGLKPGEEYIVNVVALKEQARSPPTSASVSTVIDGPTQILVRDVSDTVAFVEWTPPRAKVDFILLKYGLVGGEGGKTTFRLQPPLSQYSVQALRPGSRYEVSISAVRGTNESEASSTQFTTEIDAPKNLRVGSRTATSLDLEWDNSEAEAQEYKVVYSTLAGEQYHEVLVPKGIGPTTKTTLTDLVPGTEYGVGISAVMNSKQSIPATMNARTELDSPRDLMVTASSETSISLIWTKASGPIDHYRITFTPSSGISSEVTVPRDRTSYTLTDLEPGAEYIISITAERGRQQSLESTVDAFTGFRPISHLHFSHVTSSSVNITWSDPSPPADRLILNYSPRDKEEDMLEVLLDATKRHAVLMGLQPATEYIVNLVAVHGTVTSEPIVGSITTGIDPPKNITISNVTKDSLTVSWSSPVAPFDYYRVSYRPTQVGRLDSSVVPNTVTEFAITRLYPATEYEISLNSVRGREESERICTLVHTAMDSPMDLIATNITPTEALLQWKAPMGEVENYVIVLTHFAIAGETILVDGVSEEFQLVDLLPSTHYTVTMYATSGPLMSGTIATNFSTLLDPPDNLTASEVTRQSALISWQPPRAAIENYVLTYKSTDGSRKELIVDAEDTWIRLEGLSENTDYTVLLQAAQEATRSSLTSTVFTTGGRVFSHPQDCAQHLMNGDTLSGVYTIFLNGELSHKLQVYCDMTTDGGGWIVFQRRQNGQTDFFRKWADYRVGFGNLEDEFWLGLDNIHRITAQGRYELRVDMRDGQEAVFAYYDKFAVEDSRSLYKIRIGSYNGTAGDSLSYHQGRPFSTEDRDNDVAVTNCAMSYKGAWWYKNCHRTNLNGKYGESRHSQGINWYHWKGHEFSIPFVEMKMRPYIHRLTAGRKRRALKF
Protocol: For identifying CAQK binding proteins, mouse brains with brain injury were collected 6 hrs after injury. Using liquid nitrogen, the brains were crushed and ground into powder using a mortar and pestle. Next, brain tissue was lysed in PBS containing 200 mM n-octyl-beta-D-glucopyranoside and protease inhibitor cocktail (Roche) as described (Teesalu et al., PNAS 16157-16162 (2009)). The cleared lysate was loaded on to CAQK or control peptide (CGGK) coated Sulfolink-agarose beads (Pierce, Waltham, Mass.) and incubated at 4° C. for 3-4 hrs. The column was washed with wash buffer (75 mM octyl-beta-D-glucopyranoside and protease inhibitor cocktail in PBS) followed by washing with 0.5 mM control peptide in wash buffer to remove nonspecifically bound proteins. The bound proteins were eluted with 2 mM free CAQK peptide. The eluted factions were pooled, their protein concentration determined by using bicinchoninic acid (BCA) protein assay (Thermo Fischer) and the samples were digested using the Filter-aided Sample Preparation (FASP) method (Wisniewski et al., Nat Methods 6:359-362 (2009)). Finally, the digested samples were desalted, dried, and subjected to LC-MS/MS analysis at the Proteomics Core facility of the Sanford Burnham Prebys Medical Discovery Institute. All mass spectra were analyzed with MaxQuant software version 1.5.0.25. […] Empty column denotes protein was not detected.

[3] = test system: fluid percussion injury; conditions: intracerebroventricular administration after fluid percussion injury in rats; cited from earlier work

Row | Compound | Homing to the injured brain (FAM fluorescence, immunohistochemical staining) [1] | Peptide signal in injured brain 3 hours after injection (retention) [1] | other results
1 | FAM-CGGK: FAM-labeled control peptide (CGGK) of the same length and overall charge as CAQK ({FAM}-CGGK-NH2) | minimal fluorescent signal | completely washed out | 
2 | CGGK ({FAM}-CGGK-NH2) [control peptide of the same length and overall charge as CAQK, immobilized on Sulfolink-agarose beads] |  |  | Log2 LFQ intensity, Tenascin-R (TNR) in column eluate [2]: 24.14
3 | CN1CC[C@H](c2c(O)cc(O)c3c(=O)cc(-c4ccccc4Cl)oc23)[C@H](O)C1 [flavopiridol] |  |  | Reduction of lesion volume [3]: approximately 70%
4 | C[C@H](NC(=O)[C@@H](N)CS)C(=O)N[C@@H](CCC(N)=O)C(=O)N[C@@H](CCCCN)C(N)=O [CAQK] (H-CAQK-NH2) |  | visible | 
5 | FAM-CAQK: chemically synthesized fluoresceinamine (FAM)-labeled CAQK peptide ({FAM}-CAQK-NH2) | selective homing to the injured brain |  | FAM signal in clarified whole brain (CLARITY) ([1]; i.v. 6 hours after injury, 30-minute circulation): restricted to the injured quadrant of the brain; Co-localization and cellular localization of i.v. injected peptide signal in injured brain ([1]; immunofluorescence of PBI brain sections): prominently accumulated at mature oligodendrocytes
